The results in this text go back to the Kinase Knowledgebase extract (Sharma et al. 2016).

A value given as a limit tells only on which side of the number the result lay.

Chain of EGFR (P00533 whole entry, looked up): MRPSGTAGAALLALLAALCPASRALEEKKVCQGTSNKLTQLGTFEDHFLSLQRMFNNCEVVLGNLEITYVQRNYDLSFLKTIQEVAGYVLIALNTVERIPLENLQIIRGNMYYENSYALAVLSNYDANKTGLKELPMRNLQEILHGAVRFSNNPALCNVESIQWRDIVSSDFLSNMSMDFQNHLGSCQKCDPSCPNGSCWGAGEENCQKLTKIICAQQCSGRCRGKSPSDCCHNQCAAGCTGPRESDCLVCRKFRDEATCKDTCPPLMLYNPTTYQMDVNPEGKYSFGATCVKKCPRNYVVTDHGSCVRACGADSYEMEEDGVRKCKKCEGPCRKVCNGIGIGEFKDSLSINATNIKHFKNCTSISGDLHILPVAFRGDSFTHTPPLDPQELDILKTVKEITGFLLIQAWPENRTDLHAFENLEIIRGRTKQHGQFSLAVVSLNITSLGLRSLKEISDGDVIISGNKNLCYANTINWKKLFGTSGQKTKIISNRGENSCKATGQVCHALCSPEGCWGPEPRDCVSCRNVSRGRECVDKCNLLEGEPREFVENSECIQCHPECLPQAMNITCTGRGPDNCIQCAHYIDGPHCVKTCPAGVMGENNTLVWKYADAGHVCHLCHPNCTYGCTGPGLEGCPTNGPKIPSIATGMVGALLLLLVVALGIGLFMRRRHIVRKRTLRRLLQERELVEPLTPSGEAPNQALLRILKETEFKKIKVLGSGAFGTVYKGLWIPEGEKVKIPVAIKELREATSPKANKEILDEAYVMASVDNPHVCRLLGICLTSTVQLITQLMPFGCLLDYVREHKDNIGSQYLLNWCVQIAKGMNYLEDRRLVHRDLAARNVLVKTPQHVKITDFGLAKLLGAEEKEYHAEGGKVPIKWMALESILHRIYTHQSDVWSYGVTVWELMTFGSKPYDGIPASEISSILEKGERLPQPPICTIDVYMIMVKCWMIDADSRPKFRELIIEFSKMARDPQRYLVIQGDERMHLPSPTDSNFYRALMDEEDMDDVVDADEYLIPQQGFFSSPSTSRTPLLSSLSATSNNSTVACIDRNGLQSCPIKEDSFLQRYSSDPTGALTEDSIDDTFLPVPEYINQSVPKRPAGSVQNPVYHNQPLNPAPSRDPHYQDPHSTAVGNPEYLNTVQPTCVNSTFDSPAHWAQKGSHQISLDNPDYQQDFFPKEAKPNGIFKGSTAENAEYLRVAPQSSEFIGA

The first test deals with EGFR (human) (UniProt P00533). The following applies: a431.
Chain of EGFR (human) (P00533 whole entry, looked up): as above
`COc1cc2c(cc1OC)C(Nc1cccc(Br)c1)=NC(C)(C)N2`: the IC50 was 130 µM. In the case of `COc1cc(N)c(C(=O)Nc2ccncc2)cc1OC`, the IC50 is > 1000 µM. On to `COc1cc(N)c(C(=O)Nc2cccnc2)cc1OC`, for which the IC50 was > 1000 µM. In turn, `COc1cccc(NC(=N)c2cc(OC)c(OC)cc2N)c1` yielded an IC50 of 340 µM. With `COc1cccc(NC2=NC(C)(C)Nc3cc(OC)c(OC)cc32)c1`, the IC50 amounted to 320 µM.

Consider `COc1cccc(NC(=O)c2cc(OC)c(OC)cc2N)c1`, for which the IC50 was 200 µM.

Regarding `COc1cc(N)c(C(=O)NC2CCCCC2)cc1OC`, the IC50 was > 1000 µM. Take `COc1cc(N)c(C(=O)Nc2cccc(Br)c2)cc1OC`: the IC50 came to 340 µM.

`COc1cc(N)c(C(=O)NC(C)c2ccccc2)cc1OC` (stereo unspecified): the IC50 is > 1000 µM. As to `COc1cc(N)c(C(=O)Nc2ccccn2)cc1OC`, the IC50 is > 1000 µM.

As for `COc1cc(N)c(C(=O)Nc2cccc(C(F)(F)F)c2)cc1OC`, the IC50 came to 470 µM. Still for that read-out and setting: under `COc1cc2c(cc1OC)C(Nc1cccc(Cl)c1)=NC(C)(C)N2` stands 200 µM; under `COc1cc2c(cc1OC)C(Nc1ccc(F)c(Cl)c1)=NC(C)(C)N2`, 90 µM.

`COc1cc(N)c(C(=N)Nc2cccc(Br)c2)cc1OC` gave an IC50 of 300 µM. Turning to `COc1cc(N)c(C(=O)Nc2cccc(Br)c2)c(OC)c1OC`, the IC50 came to 920 µM. The same measure, in the same setting: the result for `COc1cc(N)c(C(=N)Nc2ccc(F)c(Cl)c2)cc1OC` reads 200 µM; that for `COc1cc(N)c(C(=O)Nc2ccc(F)c(Cl)c2)cc1OC`, > 1000 µM. In turn, `COc1cc(N)c(C(=N)Nc2cccc(Cl)c2)cc1OC` gave an IC50 of 460 µM.

A further test concerns the target EGFR (UniProt P00533). As to conditions: concentration not given here.
Take `COc1cc2ncnc(Nc3cccc(Cl)c3)c2cc1OC`: the inhibition stood at 10%. With `COc1cc(N)c(C(=O)Nc2cccc(Br)c2)c(OC)c1OC`, the inhibition is < 50%. Regarding `COc1cc(N)c(C(=N)Nc2ccc(F)c(Cl)c2)cc1OC`, the inhibition was < 50%.

As a reminder, the IC50 is the concentration that inhibits the measured activity by half. High values mean lower potency, low ones higher potency. As usually defined, the inhibition is the share of the control response that was lost under treatment. Read a high inhibition as strong suppression.
